Source: US6177475A, “Methods of using integrin modulators for treatment of inflammation” (priority 1997, dated 2001)
pIC50: −log10 of the molar value. Where two headings read alike, the source gives them in different places.

Assays:
Jurkat cells = assay: Disruption of cell clusters formed by Jurkat cells in culture; format: cell-based; conditions: Homo sapiens, 16 to 24 h
Procedure: T-lymphocytic H9 and Jurkat cells were maintained as suspension cultures in RPMI-1640 medium supplemented with 10% (v/v) heat-inactivated fetal calf serum, 50 micrograms/ml gentamycin and 2 mM L-glutamine. To assess the effects of Ajoene on adhesive interactions of the cells, H9 cells or Jurkat cells were seeded in 96-well flat-bottomed plates (3×10^5cells per well) and cultured in the presence of log 10 dilutions of Ajoene (experiment) or its vehicle (control) for 16 to 24 h.
(§1) The requirement of integrins for the formation of cell-to-cell contacts in each of these systems has long been established. It is known that in platelets the relevant integrin is GP IIb/IIIa (β3). Neutrophil aggregation is underlain by interactions of β2 integrins (e.g., LFA-1 and/or Mac-1) with their surface counterstructures, while cohesion of T-cells is supported by both β2 integrins and fibronectin-binding β1 integrins (e.g., VLA-4 and VLA-5).

[1] = test system: H9RF cells / H9 cells (HIV-1RF); assay: HIV-induced syncytium formation, H9RF donor with H9 recipient; format: cell-based
Text: For curve 1, the effect of Ajoene on the fusion of cultured, intact H9 cells with HIV infected H9RF cells is disclosed. For this curve, the vertical graph axis pertains to the maximum amount of syncytia formed in the absence of Ajoene (100 percent), while the points on line 1 represent percentages of such an amount of syncytia formed in the presence of varying concentrations of Ajoene (micromoles per liter).
Chronically infected and uninfected cell lines (HIV donors and targets, respectively) were maintained as suspension cultures in RPNI-1640 medium supplemented with 10% (v/v) heat-inactivated fetal calf serum, 50 micrograms/ml gentamycin and 2 mM L-glutamine. HIV donors used were (1) a cloned population of H9 cells harboring the genome of HIV-1RF (H9RF cells); and (2) a cloned population of SupT1 cells harboring the genome of HIV-1LAV-BRU (SupT1LAV-BRU cells). To assess the effect of Ajoene on syncytium formation, the donors were mixed with their respective recipients, H9 and SupT1, at a ratio of 1:2 in 96-well flat-bottomed plates (3×10^5 cells per well). Log 10 dilutions of Ajoene were then introduced into the wells, and the cells were cocultured for 16 h. Control wells received the vehicle of Ajoene. By the end of the incubation period syncytia were counted, and the values of IC50 for Ajoene were calculated by plotting relative amounts of syncytia (percent of the syncytia formed in the absence of the compound) against Ajoene concentration.

[2] = test system: 111In-labeled neutrophils; assay: Neutrophil recruitment to inflamed skin; format: in vivo, rat; conditions: 50 mg/kg i.v.; for Accumulation of 111In-labeled Neutrophils (mean ± SEM): 2 h
Text: (§2) Chemotactic factors (e.g., C5adesArg) and cytokines, such as tumor necrosis factor α (TNF) or interferon gamma (IFN), induce rapid cutaneous inflammatory reactions, when injected intradermally. These inflammatory reactions are characterized by integrin-mediated migration of ^51 Cr-labeled monocytes and ^111 In-labeled neutrophils. The mechanisms of leukocyte recruitment to the inflammatory loci differ, however, in that chemotactic factors act primarily on leukocytes (by upregulating integrins), whereas TNF and IFN activate endothelial cells (which results, inter alia, in rapid expression of integrin ligands, such as ICAM-1 and VCAM-1).
(§3) Agents used for the induction of the inflammation included rat IFN, recombinant mouse TNF (Genentech, South San Francisco, Calif.), and Zymozan-activated serum (ZAS). ZAS, a source of C5adesArg, was generated by activating complement in normal rat serum with 5 mg/ml of Zymozan A (Sigma Chemical Company, St. Louis, Mo.) at 37° C. for 60 min, after which the zymozan was removed.
(§4) Rat monocytes and neutrophils were isolated and labeled as described in Example 6, supra. Male Lewis rats were administered intravenously with 50 mg/kg Ajoene (treatment group) or its vehicle (control), followed within 2-3 min by infusion of the labeled cells. Immediately afterwards, the skin on the back of all animals was shaved and the inflammatory stimuli and the diluent control were injected intradermally at several sites of the skin of each animal. Two hours later, 1 ml of blood was taken from each rat, and the animals were sacrificed. The dorsal skin, including the area of dermal inflammatory reactions, was removed and frozen, and the injected skin sites were punched out with a 12-mm punch and counted in a gamma spectrometer (model 1280, LXB Instruments).

[3] = test system: neutrophils (β2 integrins); assay: N-formyl-L-methionyl-L-leucyl-L-phenylalanine-stimulated neutrophil aggregation; format: cell-based
Procedure: Neutrophil aggregation was assayed as described above for the platelet system, with some modifications. Freshly isolated neutrophils were finally suspended in a buffer (120 mM NaCl, 4 mM KCl, 10 mM dextrose, 2 mM CaCl2·2H2 O, 2 mM MgCl2·6H2 O, and 20 mM Tris; pH 7.4) to the final density of 10^7 cells per ml. Aliquots of neutrophil suspension (0.25 ml in siliconized glass cuvettes; 10^7 cells per ml) were stirred in the cell of the aggregometer with 5 micrograms per ml cytochalasin B (1000 rpm, 37° C.) for 1 min. […] Maximum LT (100%) was calibrated with the same buffer.
as §1

51Cr-labeled monocytes = assay: Monocyte recruitment to inflamed skin; format: in vivo, rat; conditions: 50 mg/kg i.v.; for Accumulation of 51Cr-labeled Monocytes (mean ± SEM): 2 h
Text: as §2, §3, §4

melanoma B16 cells = assay: Experimental metastasis, lung colonization by melanoma B16 cells; format: in vivo, C57BL/6 mice; conditions: B16 cells pretreated 30 min; 200 micromoles per liter; 3 weeks
Procedure: A suspension of 10^5 melanoma B16 cells was pretreated for 30 min with Ajoene, and the suspension (including Ajoene) was injected intravenously into male C57BL/6 mice. The mice were sacrificed 3 weeks post-injection, and their lungs subjected to microscopic examination.

In the case of `C=CCSSC=CC[S+]([O-])CC=C` (centres unmarked) [Ajoene, 4,5,9-trithiadodeca-1,6,11-triene-9-oxide], the pIC50 (Jurkat cells) was ~7.30, the “syncytia found (FIG. 1, curve 1)” value ([1]; 50 micromoles of Ajoene per liter) was “Essentially no syncytia were found” and the pIC50 ([1]; Human immunodeficiency virus 1, H9, 16 h incubation, both donor/recipient systems, read-out: IC50 range for fusion and syncytium formation) was 7.30 to 8.30. The pIC50 ([1]; Human immunodeficiency virus 1, H9RF donor, H9 recipient, 16 h, read-out: IC50 of Ajoene, syncytium formation) was ~7.30, the pIC50 ([1]; Human immunodeficiency virus 1, H9 with H9RF cells, read-out: IC50 of syncytium formation (FIG. 1, curve 1)) was 7.35 and the “Accumulation of 111In-labeled Neutrophils (mean ± SEM)” value ([2]; 10 ng TNF, P < 0.006) was 1,289 cpm per inflammatory locus. For the same compound, the “inhibition of neutrophil migration to loci of acute cutaneous inflammation” value [2] was 30-40%, the “Accumulation of 111In-labeled Neutrophils (mean ± SEM)” value ([2]; 25% ZAS, P < 0.001) was 5,558 cpm per inflammatory locus and the “Accumulation of 111In-labeled Neutrophils (mean ± SEM)” value ([2]; 50% ZAS, P < 0.001) was 7,926 cpm per inflammatory locus. The “Accumulation of 111In-labeled Neutrophils (mean ± SEM)” value ([2]; 300 U IFN, P < 0.060) was 160 cpm per inflammatory locus, the “Accumulation of 111In-labeled Neutrophils (mean ± SEM)” value ([2]; diluent control stimulus, N.S.) was 53 cpm per inflammatory locus and the IC100 ([3]; Neutrophil, stimulus N-formyl-L-methionyl-L-leucyl-L-phenylalanine 10^-7 M) was ~10 µM. The “deaggregation of aggregated neutrophils” value ([3]; added to aggregated neutrophils) was “caused rapid deaggregation”, the “Accumulation of 51Cr-labeled Monocytes (mean ± SEM)” value (51Cr-labeled monocytes; 10 ng TNF, P < 0.002) was 1,274 cpm per inflammatory locus and the “inhibition of monocyte migration to loci of acute cutaneous inflammation” value (51Cr-labeled monocytes) was 50-75%. For the same compound, the “Accumulation of 51Cr-labeled Monocytes (mean ± SEM)” value (51Cr-labeled monocytes; 25% ZAS, P < 0.020) was 944 cpm per inflammatory locus, the “Accumulation of 51Cr-labeled Monocytes (mean ± SEM)” value (51Cr-labeled monocytes; 50% ZAS, P < 0.002) was 1,268 cpm per inflammatory locus and the “Accumulation of 51Cr-labeled Monocytes (mean ± SEM)” value (51Cr-labeled monocytes; 300 U IFN, P < 0.001) was 468 cpm per inflammatory locus. The “Accumulation of 51Cr-labeled Monocytes (mean ± SEM)” value (51Cr-labeled monocytes; diluent control stimulus, N.S.) was 15 cpm per inflammatory locus and the “prevention of lung colonization” value (melanoma B16 cells) was “prevented lung colonization”.
